Laboratory results from patent US20250074976A1, “PHARMACEUTICAL COMPOSITION FOR TREATING PERIPHERAL NERVE INJURY” (NATIONAL UNIVERSITY CORPORATION HOKKAIDO UNIVERSITY, priority 2021, published 2025).

What was measured:
Assay type in all cases: in vivo, Lewis rats
[1] = system: sciatic nerve crush injury; test: Collagen sheet covering 5 mm to 25 mm distal to injury site, evaluation 7 days after crush injury (macrophages, axonal regeneration); conditions: placed 2 hours, 7 days after injury, vs control sheet
Excerpt: (§1) Anesthetized Lewis rats (males, 12-16 weeks old) or C57BL/6 mice (males, 8-10 weeks old) were placed in the prone position and a longitudinal skin incision was made from the left buttock to the distal left thigh to expose the entire sciatic nerve. Crush injuries were created with micro mosquito forceps (Fine Science Tools, No. 13010-12). An 8-0 Nylon thread was applied to the epineurium at the crush injury for marking, and the incision was closed.
(§2) After a predetermined time had elapsed from the creation of the crush injury, the right atrial appendage of the animals was incised under anesthesia to release the blood, and a PBS solution was poured into the left heart to remove the blood. After transcardial perfusion and fixation with 4% paraformaldehyde-added PBS, the sciatic nerve was collected.
(§3) Sciatic nerves collected from animals were fixed in 4% PFA at 4° C. overnight and then transferred to 30% Sucrose/PB solution and allowed to stand for 24 hours or longer. Longitudinal sciatic nerve sections of 10 μm thickness, or in the case of mice, transverse sections at predetermined locations, were prepared using a cryostat. The sections were blocked in TBS (pH 8.4) containing 5% Normal horse serum (Thermo Fisher Scientific, Waltham, MA) and 0.25% Triton X-100 (Sigma-Aldrich, St. Louis, MO) for 1 hour, and then immersed in TBS containing primary antibody at 4° C. overnight and in TBS containing secondary antibody at room temperature for 1 hour for staining. After washing with TBS, counterstaining was performed with DAPI. After staining, tissues were observed using a fluorescence microscope BZ-X710 (KEYENCE). Image analysis was performed using Image J (Schneider et al., 2012).
(§4) In β3 tubulin-immunostained images of longitudinal sciatic nerve sections, vertical lines were set at 5 mm intervals in the direction distal to the injury site, and the number of axons crossing each line was divided by the length of the line to calculate axon density. The axonal regeneration percentage was calculated by dividing the axon density at each location by the axon density at uninjured site 1.5 mm proximal to the injury site.
(§5) Crush injuries were created in the sciatic nerve of rats.
Crush injuries were created in the sciatic nerve of rats. […] The sheets were removed 12 hours after injury creation and the incisions were closed after washing.
as §5

[2] = system: sciatic nerve crush injury; test: Collagen sheet covering 5 mm to 15 mm distal to injury site, evaluation 7 days after crush injury (axonal regeneration); conditions: sheet with 500 μg inhibitor in 50 μl 1% DMSO, placed 2 hours; 7 days after injury; vs control sheet; n=1; FIG. 37
Excerpt: as §1, with “Crush injuries were created with micro mosquito forceps (Fine Science Tools, No. 13010-12).” left out
as §2
as §3, with “(KEYENCE).” for “(KEYENCE). Image analysis was performed using Image J (Schneider et al., 2012).”
as §4
Crush injuries were created in the sciatic nerve of rats. […] […] Seven days after injury creation, the sciatic nerves were collected, and immunohistochemical staining of their longitudinal sections was performed to calculate the axonal regeneration percentage.

[3] = system: sciatic nerve crush injury; test: Collagen sheet covering 15 mm to 25 mm distal to injury site, evaluation 12 hours after crush injury (NETs, macrophages); conditions: n=3; for NETs in the epineurium (CitH3 positive area) / macrophages accumulated in the nerve parenchyma: 20 mm distal
Excerpt: as §1, §2, §3
Crush injuries were created in the sciatic nerve of rats. Ten hours after injury creation, the sciatic nerves from 15 mm to 25 mm distal to the injury site were wrapped with the collagen-based artificial skin PELNAC (registered trademark) (Smith & Nephew; hereafter also referred to as sheets or collagen sheets) impregnated with either 50 μl of PBS containing 0.3 mg of the PAD4 inhibitor Cl-amidine (Cayman CHEMICAL #10599), 50 μl of PBS containing 200 U of DNase I (Nippon Gene #314-08071), or 50 μl of PBS (control). The sheets were suture-fixed with 8-0 nylon and placed for 2 hours (n=3 in each group). Twelve hours after injury creation, the sciatic nerves were collected, their longitudinal sections at 20 mm distal to the injury site were prepared and immunohistochemical staining for CitH3, Ly-6G, and CD68 was performed. The epineural area was observed and the percentage of area stained for CitH3 in the total area of the field of view was calculated. The number of macrophages per unit area of the nerve parenchyma was quantified.
Crush injuries were created in the sciatic nerve of rats. Ten hours after injury creation, the sciatic nerves from 15 mm to 25 mm distal to the injury site were wrapped with collagen sheets impregnated with either 50 μl of 1% DMSO containing 500 μg of the MIF inhibitor iso-1 (Abcam, Cat ab142140), or 50 μl of 1% DMSO. The sheets were suture-fixed with 8-0 nylon and placed for 2 hours (n=3 in each group). Twelve hours after injury creation, the sciatic nerves were collected, their longitudinal sections were prepared, and immunohistochemical staining for CitH3, Ly-6G, and CD68 was performed. The epineural area was observed and the percentage of area stained for CitH3 in the total area of the field of view was calculated. The number of macrophages per unit area of the nerve parenchyma was quantified.
Crush injuries were created in the sciatic nerve of rats. Ten hours after injury creation, the sciatic nerves from 15 mm to 25 mm distal to the injury site were wrapped with collagen sheets impregnated with either 50 μl of PBS containing 500 μg of the CXCR4 inhibitor AMD3100 (Abcam #10599), or 50 μl of PBS. The sheets were suture-fixed with 8-0 nylon and placed for 2 hours (n=3 in each group).

O=C(O)CC1CC(c2ccc(O)cc2)=NO1 (racemic) [iso-1, (S,R)-3-(4-Hydroxyphenyl)-4,5-dihydro-5-isoxazole acetic acid]
axonal regeneration percentage ([1]; sheet with 1000 μg iso-1 in 100 μl 1% DMSO, over almost the entire evaluated regions, n=3, FIG. 35): higher axonal regeneration percentage | accumulation of macrophages in the nerve parenchyma (CD68; M2 macrophages CD163) ([1]; sheet with 1000 μg iso-1 in 100 μl 1% DMSO, over the entire evaluated regions, n=3, FIG. 33, 34): greater accumulation of macrophages in the nerve parenchyma | axonal regeneration percentage [2]: higher axonal regeneration percentage | longest axon length [2]: greater longest axon length | NETs in the epineurium at 20 mm distal to the injury site (CitH3 positive area) ([3]; sheet with 500 μg iso-1 in 50 μl 1% DMSO, placed 2 hours, 12 hours after injury, FIG. 32): only a small amount of NETs were detected | macrophage accumulation at 5 mm distal to the injury site (no sheet treatment there) ([3]; sheet with 500 μg iso-1 in 50 μl 1% DMSO, placed 2 hours, 12 hours after injury, vs control sheet, FIG. 30): no difference in macrophage accumulation | macrophages accumulated in the nerve parenchyma at 20 mm distal to the injury site (sheet-treated) ([3]; sheet with 500 μg iso-1 in 50 μl 1% DMSO, placed 2 hours, 12 hours after injury, vs control sheet, FIG. 31): more macrophages accumulated in the nerve parenchyma

N=C(CCl)NCCC[C@H](NC(=O)c1ccccc1)C(N)=O.O=C(O)C(F)(F)F [Cl-amidine, N^2-Benzoyl-N^5-(1-imino-2-chloroethyl)-L-ornithinamide trifluoroacetic acid]
NETs in the epineurium (CitH3 positive area) ([3]; sheet with 0.3 mg Cl-amidine or 200 U DNase I in 50 μl PBS, placed 2 hours from 10 hours after injury, 12 hours, vs control sheet (large amount), FIG. 25): only a small amount of NETs were detected | macrophages accumulated in the nerve parenchyma ([3]; sheet with 0.3 mg Cl-amidine or 200 U DNase I, placed 2 hours, 12 hours, CD68, vs control sheet, FIG. 26): more macrophages accumulated in the nerve parenchyma

O=C(CC1CC(c2ccc(F)cc2F)=NO1)N1CCOCC1 (stereo not drawn) [CPSI-1306]
axonal regeneration percentage [2]: higher axonal regeneration percentage | longest axon length [2]: greater longest axon length

c1cc(CN2CCCNCCNCCCNCC2)ccc1CN1CCCNCCNCCCNCC1 [AMD3100, 1,4-Bis[(1,4,8,11-tetraazacyclotetradecan-1-yl)methyl]benzene]
macrophages accumulated in the nerve parenchyma ([1]; sheet with 1 mg AMD3100 in 100 μl PBS, over almost the entire evaluated regions, n=1, FIG. 42): more macrophages accumulated in the nerve parenchyma | axonal regeneration percentage ([1]; sheet with 1 mg AMD3100 in 100 μl PBS, n=1, FIG. 41): higher axonal regeneration percentage | NETs in the epineurium (CitH3 positive area) ([3]; sheet with 500 μg AMD3100 in 50 μl PBS, placed 2 hours, 12 hours after injury, FIG. 39): only a small amount of NETs were detected | macrophages accumulated in the nerve parenchyma ([3]; sheet with 500 μg AMD3100 in 50 μl PBS, placed 2 hours, 12 hours after injury, vs control sheet, FIG. 40): more macrophages accumulated in the nerve parenchyma
